In ChEMBL document CHEMBL5370523, “Clinically approved small-molecule drugs for the treatment of rheumatoid arthritis” (Eur J Med Chem, 2023) one finds IC50 data, which are given here for two molecules.

Assay [1] addresses T1, Prostaglandin G/H synthase 2 (Homo sapiens, UniProt P35354).
T1 sequence (P35354 whole entry): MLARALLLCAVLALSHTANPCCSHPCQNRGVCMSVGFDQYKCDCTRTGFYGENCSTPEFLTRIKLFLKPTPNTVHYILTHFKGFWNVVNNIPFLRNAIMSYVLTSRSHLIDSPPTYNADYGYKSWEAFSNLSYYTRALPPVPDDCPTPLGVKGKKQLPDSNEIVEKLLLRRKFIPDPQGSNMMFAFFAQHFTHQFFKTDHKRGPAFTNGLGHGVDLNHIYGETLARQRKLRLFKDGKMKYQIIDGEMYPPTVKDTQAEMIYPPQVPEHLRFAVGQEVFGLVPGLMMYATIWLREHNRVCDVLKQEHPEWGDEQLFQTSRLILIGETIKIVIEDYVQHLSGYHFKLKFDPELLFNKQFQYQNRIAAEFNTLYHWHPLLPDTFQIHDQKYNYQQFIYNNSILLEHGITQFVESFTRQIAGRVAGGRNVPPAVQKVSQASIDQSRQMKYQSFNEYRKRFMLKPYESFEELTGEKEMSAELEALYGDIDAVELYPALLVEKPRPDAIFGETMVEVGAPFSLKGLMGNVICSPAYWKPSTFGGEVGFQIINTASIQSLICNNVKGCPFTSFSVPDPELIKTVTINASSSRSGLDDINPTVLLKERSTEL

The target in assay [2] is T1, Prostaglandin G/H synthase 2. Type of assay: tissue-based, Blood.
The target in assay [3] is Prostaglandin G/H synthase 1 (Homo sapiens, UniProt P23219). Type of assay: tissue-based, Blood.
Sequence of Prostaglandin G/H synthase 1 (P23219 whole entry): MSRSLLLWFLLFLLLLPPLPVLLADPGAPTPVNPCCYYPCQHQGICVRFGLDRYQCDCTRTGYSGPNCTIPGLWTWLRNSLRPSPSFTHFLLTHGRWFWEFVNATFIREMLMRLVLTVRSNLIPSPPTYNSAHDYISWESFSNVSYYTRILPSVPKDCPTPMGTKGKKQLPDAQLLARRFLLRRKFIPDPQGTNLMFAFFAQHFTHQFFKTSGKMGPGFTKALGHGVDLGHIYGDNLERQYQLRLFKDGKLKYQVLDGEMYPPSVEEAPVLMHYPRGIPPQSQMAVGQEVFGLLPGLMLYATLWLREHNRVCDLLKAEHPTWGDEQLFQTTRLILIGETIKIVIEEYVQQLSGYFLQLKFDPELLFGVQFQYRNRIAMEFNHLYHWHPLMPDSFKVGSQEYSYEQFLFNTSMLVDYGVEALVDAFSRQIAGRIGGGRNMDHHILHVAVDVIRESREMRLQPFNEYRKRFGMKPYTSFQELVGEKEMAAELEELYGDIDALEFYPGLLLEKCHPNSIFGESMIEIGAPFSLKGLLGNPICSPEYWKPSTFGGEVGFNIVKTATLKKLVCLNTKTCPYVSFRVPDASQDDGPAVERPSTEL
Description: Inhibition of COX-1 in human whole blood preincubated for 60 mins followed by calcium ionophore A23187 addition and measured after 30 mins by radioimmunoassay

The term IC50 denotes the concentration that gives 50% inhibition. A lower IC50 goes with higher potency. Take `O=C(O)CCc1nc(-c2ccccc2)c(-c2ccccc2)o1` [OXAPROZIN]: half-maximal inhibition in assay [1] (IC50) required 36000 nM. Consider `Cc1ccc(C(=O)c2ccc(CC(=O)O)n2C)cc1` [TOLMETIN], for which the half-inhibitory concentration (IC50) in assay [2] turned out to be 820 nM; in assay [3], 350 nM.
